Read-outs that look alike come from different tables or passages of the source.
Assay: Whole plasma pharmacokinetics in dogs (HPLC)
Type: in vivo, dog
Description: Br. J. Cancer (1984), 50, 291-303 Preclinical pharmacokinetics of benznidazole P. Workman', R.A.S. White2, M.I. Walton', L.N. Owen2* & P.R. Twentyman' 1MRC Clinical Oncology and Radiotherapeutics Unit, MRC Centre, Hills Road, Cambridge CB2 2QH, and 2Department of Clinical Veterinary Medicine, University of Cambridge, Madingley Road, Cambridge CB3 OES, UK. […] We have investigated the detailed pharmacokinetics of benznidazole in mice, dogs and sheep to provide a data base for the estimation of doses required for chemosensitization in man. Pharmacokinetic behaviour was linear except at high doses in mice. Absorption was fairly rapid and bioavailability was complete following both i.p. administration in mice and oral administration in dogs. Elimination t4 values were longer than for MISO, being 90 min in mice, 4-5 h in sheep and 9-11 h in dogs. At doses giving linear kinetics, peak whole plasma concentrations per administered mgkg-1 were 0.75 jigml-1 for the i.p. route in mice and 1.8jugmlP' for the oral route in dogs. Though between 39 and 59% of plasma benznidazole was bound to protein, tissue penetration was generally good. Tissue/whole plasma ratios ranged from 59-99% for transplantable mouse tumours and from 14-70% for spontaneous dog neoplasms. Nervous tissue penetration was similar to that in tumours: brain/whole plasma ratios averaged between 61 and 76% in mice and 42% in dogs, while peripheral nerve/whole plasma ratios in dogs averaged 74%. Mean liver/whole plasma ratios were 42% and 71% in BALB/c and C3H/He mouse strains respectively. Only -5% of the administered dose was excreted unchanged in the urine, indicating the likelihood of extensive metabolism. […] Enhancement of CCNU response is likely to require circulating benznidazole concentrations of 10-30 pgml-1 and we predict that these will be obtained with oral doses of 6-20 mgkg- 1 in man. […] This enhancement, or chemosensitization, is usually greater than that seen in dose-limiting normal tissues, resulting in an improved therapeutic index. Because of the relatively high doses of MISO usually required for chemosensitization in mice (see above refs), and also because of its neurotoxicity in man (Dische et al., 1977), we have been interested in finding an improved chemosensitizer. […] The lipophilic ana- logue benznidazole (N-benzyl-(2-nitroimidazolyl) acetamide, Ro 07-1051; Radanil; Roche), the structure of which is shown in Figure 1, was selected for detailed study because of its ability to *Present address: Animal Health Trust, Small Animals Centre, Lanwades Park, Kennett, Newmarket, Suffolk CB8 7PN, UK. Correspondence: P. Workman. […] These findings have been confirmed independently by Siemann et al. (1983). Although benznidazole is used quite widely in South America to treat patients with the trypanosomal infection Chagas' disease or with mucotaneous Leishmaniasis (Barclay et al., 1978; Cerisola et al., 1978; Coura et al., 1978; Fava et al., 1978), apart from our preliminary studies (White et al., 1982) the only published data on its pharmaco- kinetics are for human plasma concentrations measured by polarography (Raaflub & Ziegler, 1979; Raaflub, 1980). Here we describe the pharmacokinetics of benznidazole in the mouse, sheep and dog, as determined by high-performance liquid chromatography (HPLC). […] The Macmillan Press Ltd., 1984 292 P. WORKMAN et al. particularly on plasma and tumour concentrations, have been used as a basis for the estimation of the benznidazole doses required in a Phase I trial of benznidazole plus CCNU, at present ongoing in our Unit. Materials and methods Animals and tumours Adult inbred male BALB/c mice were obtained from OLAC (Southern) Ltd. (Bicester, UK) and adult inbred C3H/He mice of both sexes from OLAC and our own breeding colony. Mice were housed in plastic cages on sawdust bedding made from soft white woods, and allowed laboratory chow and water ad lib. They were used at 20-35 g body wt.

[1] = collie crossbred, dog, plasma, iv, 5 mg/kg, dog C, 5 mg kg-1 i.v.
[2] = collie crossbred, dog, plasma, iv, 5 mg/kg, dog D, 5 mg kg-1 i.v.
[3] = dog A, collie crossbred 18 kg, 25 mg kg-1 oral
[4] = dog B, collie crossbred 28 kg, 25 mg kg-1 oral

Question: For `O=C(Cn1ccnc1[N+](=O)[O-])NCc1ccccc1` [benznidazole, N-benzyl-(2-nitroimidazolyl) acetamide], which AUC(0-inf) (beagle, dog, plasma, po, 50 mg/kg, dog E, 50 mg kg-1 oral) is on record?
Answer: 760 µg·h/mL

Question: And the half-life (beagle, dog, plasma, po, 50 mg/kg, dog E, 50 mg kg-1 oral, 95% confidence limits 5.3-6.1, read-out: elimination half-life t1/2β (converted))?
Answer: 5.7 h

Question: What about the AUC(0-inf) (beagle, dog, plasma, po, 50 mg/kg, dog F, 50 mg kg-1 oral) of the same molecule?
Answer: 707 µg·h/mL

Question: What about the half-life (beagle, dog, plasma, po, 50 mg/kg, dog F, 50 mg kg-1 oral, 95% confidence limits 6.4-7.3, read-out: elimination half-life t1/2β (converted)) of the same molecule?
Answer: 6.8 h

Question: And the Tmax (collie crossbred, beagle, dog, plasma, dogs, oral administration, usual range, read-out: time to peak plasma concentration)?
Answer: 1 to 5 h

Question: What about the Vd (collie crossbred, dog, plasma ultrafiltrate (unbound drug), iv, 5 mg/kg, dog C, 5 mg kg-1 i.v., read-out: volume of distribution (Vd area), unbound drug data) of the same molecule?
Answer: 2.05 L/kg

Question: And the Vd (collie crossbred, dog, plasma ultrafiltrate (unbound drug), iv, 5 mg/kg, dog D, 5 mg kg-1 i.v., read-out: volume of distribution (Vd area), unbound drug data)?
Answer: 1.87 L/kg

Question: What about the half-life (collie crossbred, dog, plasma, dogs (large crossbred), summary value, read-out: elimination t1/2) of the same molecule?
Answer: 9 to 11 h

Question: And the AUC(0-inf) [1]?
Answer: 105 µg·h/mL

Question: And the clearance [1]?
Answer: 0.793 mL/min/kg

Question: And the half-life (collie crossbred, dog, plasma, iv, 5 mg/kg, dog C, 5 mg kg-1 i.v., 95% confidence limits 7.1-8.1, read-out: elimination half-life t1/2β (converted))?
Answer: 7.6 h

Question: And the Vd (collie crossbred, dog, plasma, iv, 5 mg/kg, dog C, 5 mg kg-1 i.v., read-out: volume of distribution (Vd area), total plasma data)?
Answer: 0.52 L/kg

Question: And the AUC(0-inf) [2]?
Answer: 138 µg·h/mL

Question: And the clearance [2]?
Answer: 0.603 mL/min/kg

Question: And the half-life (collie crossbred, dog, plasma, iv, 5 mg/kg, dog D, 5 mg kg-1 i.v., 95% confidence limits 9.2-11.4, read-out: elimination half-life t1/2β (converted))?
Answer: 10.2 h

Question: And the Vd (collie crossbred, dog, plasma, iv, 5 mg/kg, dog D, 5 mg kg-1 i.v., read-out: volume of distribution (Vd area), total plasma data)?
Answer: 0.53 L/kg

Question: And the half-life (collie crossbred, dog, plasma, iv, 5 mg/kg, dogs C and D, 5 mg kg-1 i.v., read-out: distribution phase half-life t1/2α (estimated by back-stripping, about))?
Answer: 0.167 to 0.417 h

Question: What about the AUC(0-inf) (collie crossbred, dog, plasma, po, 12.5 mg/kg, dog C, 12.5 mg kg-1 oral) of the same molecule?
Answer: 419 µg·h/mL

Question: What about the half-life (collie crossbred, dog, plasma, po, 12.5 mg/kg, dog C, 12.5 mg kg-1 oral, 95% confidence limits 9.7-13.3, read-out: elimination half-life t1/2β (converted)) of the same molecule?
Answer: 11.2 h

Question: What about the AUC(0-inf) (collie crossbred, dog, plasma, po, 12.5 mg/kg, dog D, 12.5 mg kg-1 oral) of the same molecule?
Answer: 450 µg·h/mL

Question: And the half-life (collie crossbred, dog, plasma, po, 12.5 mg/kg, dog D, 12.5 mg kg-1 oral, 95% confidence limits 17.3-22.0, read-out: elimination half-life t1/2β (apparent) (converted))?
Answer: 19.4 h

Question: What about the AUC(0-inf) (collie crossbred, dog, plasma, po, 25 mg/kg, dog A, 25 mg kg-1 oral, samples collected up to 9 h only) of the same molecule?
Answer: ~800 µg·h/mL

Question: And the AUC(0-inf) (collie crossbred, dog, plasma, po, 25 mg/kg, dog B, 25 mg kg-1 oral, samples collected up to 9 h only)?
Answer: ~800 µg·h/mL

Question: And the AUC(0-inf) (collie crossbred, dog, plasma, po, 25 mg/kg, dog C, 25 mg kg-1 oral)?
Answer: 687 µg·h/mL

Question: What about the half-life (collie crossbred, dog, plasma, po, 25 mg/kg, dog C, 25 mg kg-1 oral, 95% confidence limits 8.9-10.6, read-out: elimination half-life t1/2β (converted)) of the same molecule?
Answer: 9.7 h

Question: What about the AUC(0-inf) (collie crossbred, dog, plasma, po, 25 mg/kg, dog D, 25 mg kg-1 oral) of the same molecule?
Answer: 804 µg·h/mL

Question: And the half-life (collie crossbred, dog, plasma, po, 25 mg/kg, dog D, 25 mg kg-1 oral, 95% confidence limits 8.9-10.6, read-out: elimination half-life t1/2β (converted))?
Answer: 9.7 h

Question: And the half-life (collie crossbred, dog, plasma, po, larger crossbred dogs, oral administration, read-out: elimination t1/2, range)?
Answer: 9.5 to 11.2 h

Question: What about the peak time [3] of the same molecule?
Answer: 5 h

Question: And the “peak whole plasma concentration” value [3]?
Answer: 48.4 µg/mL

Question: What about the peak time [4] of the same molecule?
Answer: 3 h

Question: What about the “peak whole plasma concentration” value [4] of the same molecule?
Answer: 52.2 µg/mL

— PMC1976805, “Preclinical pharmacokinetics of benznidazole” (British Journal of Cancer, 1984)
